Columns and labels:
[1] = Treatment of a person suffering from autoimmune-mediated limbic encephalitis (single-patient case, anti-NMDAR encephalitis)
[2] = multiple sclerosis patients; cited from earlier work

NC(=O)N1c2ccccc2C=Cc2ccccc21 [carbamazepine]
response of generalized tonic-clonic repetitive seizures to anticonvulsants ([1]; before cladribine): did not respond

Nc1nc(Cl)nc2c1ncn2[C@H]1C[C@H](O)[C@@H](CO)O1 [cladribine, 2-chloro-2′-deoxyadenosine]
period of beneficial effects on the disease without need for frequent retreatment ([1]; after a relatively short period of treatment): over 10 months to two years
disability reported by patient ([1]; after recovery following cladribine, able to perform all usual activities): no significant disability
recurrence of disease ([1]; follow up of 2 years, 5 more maintenance courses (20 mg over 2 consecutive days) with 2 months intervals): did not show any recurrence of disease
neurological condition ([1]; over subsequent 4 weeks after the first 3 weeks following cladribine): returned to normal neurological condition
onset of effect on severe symptoms ([1]; patient with refractory autoimmune encephalitis): rapid effect
neurological sequel ([1]; remaining after recovery following cladribine): parasomnia and complete loss of memory covering the entire hospitalization period
time at which therapeutic effect on MS is evident [2]: three months after treatment

O=C1CN=C(c2ccccc2Cl)c2cc([N+](=O)[O-])ccc2N1 [clonazepam]
response of generalized tonic-clonic repetitive seizures to anticonvulsants ([1]; before cladribine): did not respond

O=C(CCCN1CCC(O)(c2ccc(Cl)cc2)CC1)c1ccc(F)cc1 [haloperidol]
psychiatric condition under standard antipsychotic treatment ([1]; during entire stay in the psychiatric ward, before cladribine): without any improvement

O=C1NC(=O)C(c2ccccc2)(c2ccccc2)N1 [phenytoin]
response of generalized tonic-clonic repetitive seizures to anticonvulsants ([1]; before cladribine): did not respond

CCCC(CCC)C(=O)[O-].[Na+] [sodium valproate]
response of generalized tonic-clonic repetitive seizures to anticonvulsants ([1]; before cladribine): did not respond
